Assay results from US5192799A, “Coumaran group containing amine compounds and their acid addition salts and quaternary ammonium salts and the use thereof as anti arrhythmic agents and as psychotropic agents” (Mitsui Petrochemical Industries, Ltd., priority 1987, dated 1993).

Experiments:
[1] = system: Purkinje fiber; test: Effect on APD (APD75, field-stimulated right ventricular free wall); assay type: cell-based, adult mongrel dog; conditions: 20 minutes incubation, 37° C., 1 Hz, control before drug = 100%; for activation at 10 µg/mL / activation at 1 µg/mL / activation at 3 µg/mL: Canis lupus familiaris, purkinje, 20 min, read-out: APD75 % (percent change in APD75)
Protocol: The pharmacological effects of the compounds of this invention represented by general formula (1) were studied. By using the heart of an adult mongrel dog, the activity of the compounds of general formula (1) were tested in vitro and in vivo. The heart of an anaethetized dog was extracted and suspended in a chamber at 37° C. in Tyrode's solution. The drug was added to Tyrode's solution being perfused through the heart specimen, and electrophysiological effects of the drug on cardiac action potential duration (APD) and maximum rate of depolarization were studied. An anaethetized dog was cut open at the chest.
An adult mongrel dog was anaethetized with intravenous administration of pentobarbital, 30 mg/kg. The heart was quickly removed, and the right ventricular free wall was dissected in the Tyrode's solution. The right ventricular free wall was fixed within an incubator at 37° C., and field stimulation at 1 Hz was carried out. Intracellular potentials were measured by piercing glass microelectrodes (10-20 megaohms) into the Purkinje fiber and the wave form of cardiac action potential drawn on an oscilloBraun tube via an amplifier was analyzed by a computer. Value of APD was obtained at 75% of full repolarization (APD75). The drug was added to Tyrode's solution (20 ml) perfused through the specimen. The effect of the drug was expressed by a percent change in APD75 after incubation for 20 minutes with the control value of APD before application of the drug being taken as 100%.

[2] = system: right ventricle (effective refractory period); test: Activity on ERP of the right ventricle; assay type: in vivo, adult mongrel dog; conditions: Canis lupus familiaris, iv, ERP before drug = 100%, read-out: ERP % (ERP prolonging activity); for change in vivo at 0.1 mg/kg: 0.1 mg/kg i.v.; for change in vivo at 0.3 mg/kg: 0.3 mg/kg i.v.; for change in vivo at 1 mg/kg: 1 mg/kg i.v.; for change in vivo at 3 mg/kg: 3 mg/kg i.v.
Protocol: The pharmacological effects of the compounds of this invention represented by general formula (1) were studied. By using the heart of an adult mongrel dog, the activity of the compounds of general formula (1) were tested in vitro and in vivo. The heart of an anaethetized dog was extracted and suspended in a chamber at 37° C. in Tyrode's solution. The drug was added to Tyrode's solution being perfused through the heart specimen, and electrophysiological effects of the drug on cardiac action potential duration (APD) and maximum rate of depolarization were studied. An anaethetized dog was cut open at the chest. […] In an anaethetized and open-chested adult mongrel dug, a silver-silver chloride electrode was sutured to the right ventricle, and ventricular pacing was performed at a stimulation interval of 400 msec for a duration time of 4 msec, twice diastolic threshold. Then, a small amount of alcohol was injected through the sinus artery to extinguish the pacemaker activity, and under ventricular pacing, ERP was measured. Ten stimulations were taken as one train, and the interval between trains when the response to the first stimulation disappeared was defined as ERP. […] ERP before drug administration (intravenously or intraduodenally) was taken as 100%, and ERP prolonging activity of the drugs was expressed by %.

[3] = in vivo; conditions: mouse, in vivo, po, LD50 p.o., p.o., 24 hours after administration, male ddY mice
Protocol: By using male ddY-strain 5-week old mice (3 to 4 per group), the compounds of general formula (1) were each administered orally or intraperitoneally as a solution in saline or as a suspension in methyl cellulose, and 24 hours after the administration, the toxicity of the compounds was evaluated.

SMILES	activation at 10 µg/mL ([1]; dose 10 μg/ml)	activation at 1 µg/mL ([1]; dose 1 μg/ml)	activation at 3 µg/mL ([1]; dose 3 μg/ml)	also measured
CCCCCCC[N+](CC)(CC)CCCCc1ccc(Cl)cc1 [Clofilium, reference compound]	15%			change in vivo at 0.1 mg/kg [2]: 7 ± 1.3%; change in vivo at 0.3 mg/kg [2]: 15.2 ± 2.4%; change in vivo at 1 mg/kg [2]: 22.4 ± 1.6%
CCCCCCC[N+](CC)(CC)CCCOc1ccc2ccc(=O)oc2c1 [Compound 638]		0%	7%	
CCCCCCC[N+](CC)(CC)CCCOc1cccc2c1OCC2=O [Compound 295]				LD50 at 24 h [3]: > 300 mg/kg
CC[N+]1(CCCOc2ccc3c(c2)OCC3=O)CC(C)OC(C)C1 (centres unmarked) [Compound 1171]		0%	10%	LD50 at 24 h [3]: > 300 mg/kg
O=C1COc2cc(OCCCN3CCCCC3)ccc21 [Compound 1108]		0%	7%	APD75 % (percent change in APD75) ([1]; dose 10 μg/ml): 9%
CCCCCCC[N+](CC)(CC)CC(O)COc1ccc2c(c1)OCC2=O (centres unmarked) [Compound 292]	28%	15%	25%	change in vivo at 0.1 mg/kg [2]: 8%; change in vivo at 0.3 mg/kg [2]: 8%; change in vivo at 1 mg/kg [2]: 8%
CCCCCCC[N+](CC)(CC)CCCOc1ccc2c(c1)OCC2 [Compound 422]		0%	3%	
O=C1COc2cc(OCCCN3CCCCC3)ccc21 [Compound 1110]				APD75 % (percent change in APD75) ([1]; dose 3 μg/ml): 10%; APD75 % (percent change in APD75) ([1]; dose 10 μg/ml): 20%; LD50 at 24 h [3]: > 300 mg/kg
C[C@H]1C[C@H](C)CN(CCCOc2ccc3c(c2)OCC3=O)C1 (relative stereo) [Compound 1129]			7%	
O=C1COc2cc(OCCCN3CCCC3)ccc21 [Compound 1102]			6%	
CCCCCCC[N+](CC)(CC)CCCOc1ccc2c(c1)CCC2 [Compound 770]		0%	7%	
O=C1COc2cc(OCCCN3CCCC(CO)C3)ccc21 (centres unmarked) [Compound 1214]			4%	
CSC(=NC#N)N(C)CCCOc1ccc2c(c1)OCC2=O [Compound 271]				LD50 at 24 h [3]: > 300 mg/kg
CCCCCN(CC)CCCCOc1ccc2c(c1)OCC2=O [Compound 208]	9%	0%	5%	LD50 at 24 h [3]: ~300 mg/kg
CCN(CCCOc1ccc2c(c1)OCC2=O)C12CC3CC(CC(C3)C1)C2 [Compound 172]		0%	8%	
O=C1COc2cc(OCCCN3CC4CCC(CC4)C3)ccc21 [Compound 1198]		4%	6%	
CCCN(CCCOc1ccc2c(c1)OCC2=O)CCOC [Compound 180]	15%	5%	11%	
CC1CCN(CCCOc2ccc3c(c2)OCC3=O)C1 (centres unmarked) [Compound 1106]	13%		8%	
CCCC1CCCCN1CCCOc1ccc2c(c1)OCC2=O (centres unmarked) [Compound 1134]		7%	9%	
CCCCCCC[N+](CC)(CC)CCCOc1ccc2c(c1)OC(C)(CC)CC2=O (centres unmarked) [Compound 820]		4%	5%	
CCCCCCCN(CC)CCCOc1ccc2c(c1)OC(C)(CC)C2C (centres unmarked) [Compound 404]			4%	
CCCCCCC[N+](CC)(CC)CCCOc1ccc2c(C)c(C)c(=O)oc2c1 [Compound 634]	11%	4%	7%	
CC(C)NCC(O)c1ccc(NS(C)(=O)=O)cc1 (centres unmarked) [Sotalol, reference compound]				change in vivo at 0.1 mg/kg [2]: 1.7 ± 1.7%; change in vivo at 0.3 mg/kg [2]: 6.7 ± 0.9%; change in vivo at 1 mg/kg [2]: 8.7 ± 1.2%; change in vivo at 3 mg/kg [2]: 15.5 ± 0.5%

SMILES	activation at 10 µg/mL ([1]; dose 10 μg/ml)	activation at 1 µg/mL ([1]; dose 1 μg/ml)	activation at 3 µg/mL ([1]; dose 3 μg/ml)	also measured
CCCCCCC[N+](CC)(CC)CCCOc1ccc2c(c1OC)OCC2=O [Compound 289]		7%	8%	
CCCCCCCN(CC)CCCOc1ccc2c(c1)OCC2=O [Compound 100]		21%	31%	
CC(=O)NC1CCN(CCCOc2ccc3c(c2)OCC3=O)CC1 [Compound 1302]	13%		5%	LD50 at 24 h [3]: > 300 mg/kg
C=CCc1ccccc1OCC(O)C[N+](C)(C)C(C)C (centres unmarked) [Compound 1020]	19%	10%	14%	
C=CC[N+](CC)(CCCOc1ccc2c(c1)OCC2=O)C1CCCCC1 (centres unmarked) [Compound 294]	35%		11%	
CCCCCCCN(CC)CC(O)COc1ccc2c(c1)OCC2=O (centres unmarked) [Compound 214, 6-[3-(N-ethyl-N-heptylamino)-2-hydroxypropyloxy]coumaran-3-one]		15%	15%	
CS(=O)(=O)Nc1ccc(C2CCN(CCCOc3ccc4c(c3)OCC4=O)CC2)cc1 [Compound 1304]				LD50 at 24 h [3]: > 300 mg/kg
CCCCCCCN(CC)CCCOc1ccc2sc(=O)oc2c1 [Compound 952]	7%	0%	3%	
O=C1COc2cc(OCCCN3CCOCC3)ccc21 [Compound 1166]		4%	6%	
CC(C)NCC(O)COc1ccc2c(c1)OCC2=O (centres unmarked) [Compound 272]	10%		8%	
CCCN(CCCOc1ccc2c(c1)OCC2=O)CCC(=O)OCC [Compound 281]				LD50 at 24 h [3]: > 300 mg/kg
O=C1COc2cc(OCCCN3CCCC4CCCCC43)ccc21 (centres unmarked) [Compound 1158]	13%		10%	LD50 at 24 h [3]: > 300 mg/kg
CCCCN(CCCC)CCOc1ccc2c(c1)OCC2=O [Compound 204]	8%	3%	7%	
CCCCCCC[N+](CC)(CC)CCCOc1ccccc1C=CC(C)=O [Compound 1022]	18%	0%	11%	
CCCCCN(CC)CCCOc1ccc2c(c1)OCC2=O [Compound 108]		0%	2%	
O=C1COc2cc(OCCCN[C@@H]3C[C@H]4CC[C@@H]3C4)ccc21 (relative stereo) [Compound 168]		0%	3%	
CCCCCCC[N+](CC)(CC)CCCOc1cc(OC)c2c(c1)OCC2=O [Compound 290]	35%		11%	
O=C1CCc2cc(OCCC[N+]34CN5CN(CN(C5)C3)C4)ccc21 [Compound 1400]				LD50 at 24 h [3]: > 300 mg/kg
CCCC[N+](CCCC)(CCCC)CCCOc1ccc2c(c1)OCC2=O [Compound 293]		0%	4%	
CC[N+]1(CCCOc2ccc3c(c2)OCC3=O)CCCC(C)C1 (centres unmarked) [Compound 1119]			4%	
COCCN(CCCOc1ccc2c(c1)OCC2=O)CCOC [Compound 276]	23%	5%	12%	change in vivo at 0.1 mg/kg [2]: 0%; change in vivo at 0.3 mg/kg [2]: 0%; change in vivo at 1 mg/kg [2]: 7%; change in vivo at 3 mg/kg [2]: 7%
O=C1COc2cc(OCCC[n+]3ccc(-c4ccccc4)cc3)ccc21 [Compound 1404]				LD50 at 24 h [3]: > 300 mg/kg
CCCCCCCN(CC)CCCOc1ccc2c(c1)OCC2=O [Compound 104]				APD75 % (percent change in APD75) ([1]; dose 1 μg/ml): 21%; APD75 % (percent change in APD75) ([1]; dose 3 μg/ml): 30%
